Source: patent US20210395239A1 (Hoffmann-La Roche Inc., priority 2018, published 2021)

Biological target: T1, human TLR7 (Homo sapiens, UniProt Q9NYK1)
T1 construct: host or cells: HEK293 (HEK-Blue hTLR7)
T1 sequence (Q9NYK1 27-1049): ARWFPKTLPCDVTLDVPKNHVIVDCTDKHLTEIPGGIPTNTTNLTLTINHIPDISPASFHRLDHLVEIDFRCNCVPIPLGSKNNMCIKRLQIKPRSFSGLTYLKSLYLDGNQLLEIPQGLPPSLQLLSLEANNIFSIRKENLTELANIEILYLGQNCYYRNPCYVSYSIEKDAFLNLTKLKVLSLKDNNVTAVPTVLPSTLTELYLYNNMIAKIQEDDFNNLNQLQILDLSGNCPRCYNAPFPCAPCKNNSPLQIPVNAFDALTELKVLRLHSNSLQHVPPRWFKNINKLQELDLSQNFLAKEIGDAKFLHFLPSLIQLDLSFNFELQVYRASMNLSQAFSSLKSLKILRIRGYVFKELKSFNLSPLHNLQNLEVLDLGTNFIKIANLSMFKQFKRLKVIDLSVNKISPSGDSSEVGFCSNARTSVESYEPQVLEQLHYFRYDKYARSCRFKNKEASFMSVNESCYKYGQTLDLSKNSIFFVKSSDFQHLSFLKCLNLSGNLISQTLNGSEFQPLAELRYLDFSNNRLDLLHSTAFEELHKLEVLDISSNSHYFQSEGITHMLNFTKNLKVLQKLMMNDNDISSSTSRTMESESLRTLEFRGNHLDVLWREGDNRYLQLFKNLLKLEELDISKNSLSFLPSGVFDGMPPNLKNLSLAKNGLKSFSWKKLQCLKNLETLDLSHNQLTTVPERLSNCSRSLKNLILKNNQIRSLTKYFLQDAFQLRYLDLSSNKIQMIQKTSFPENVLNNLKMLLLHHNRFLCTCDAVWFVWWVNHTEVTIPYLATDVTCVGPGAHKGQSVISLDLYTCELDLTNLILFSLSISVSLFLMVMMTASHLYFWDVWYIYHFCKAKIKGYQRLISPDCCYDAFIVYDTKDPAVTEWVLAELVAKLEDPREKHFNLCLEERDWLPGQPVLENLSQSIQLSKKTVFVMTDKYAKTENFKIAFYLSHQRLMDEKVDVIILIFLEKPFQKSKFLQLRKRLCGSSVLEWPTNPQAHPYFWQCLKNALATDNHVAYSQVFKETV
Test: HEK293-Blue-hTLR-7 cells assay (SEAP reporter, R848 stimulation)
Type: cell-based
Conditions: HEK293-Blue-hTLR7 cells, R848, 20 hrs; read-out: HEK/hTLR7 IC50
From the text: HEK293-Blue-hTLR-7 Cells Assay:
A stable HEK293-Blue-hTLR-7 cell line was purchased from InvivoGen (Cat. #: hkb-ht1r7, San Diego, Calif., USA). These cells were originally designed for studying the stimulation of human TLR7 by monitoring the activation of NF-κB. A SEAP (secreted embryonic alkaline phosphatase) reporter gene was placed under the control of the IFN-β minimal promoter fused to five NF-κB and AP-1-binding sites. The SEAP was induced by activating NF-κB and AP-1 via stimulating HEK-Blue hTLR7 cells with TLR7 ligands. Therefore the reporter expression was declined by TLR7 antagonist under the stimulation of a ligand, such as R848 (Resiquimod), for incubation of 20 hrs. The cell culture supernatant SEAP reporter activity was determined using QUANTI-Blue™ kit (Cat. #: rep-qb1, Invivogen, San Diego, Ca, USA) at a wavelength of 640 nm, a detection medium that turns purple or blue in the presence of alkaline phosphatase.
HEK293-Blue-hTLR7 cells were incubated at a density of […] cells/mL in a volume of 170 μL in a 96-well plate in Dulbecco's Modified Eagle's medium (DMEM) containing 4.5 g/L glucose, 50 U/mL penicillin, […], […], 2 mM L-glutamine, 10% (v/v) heat-inactivated fetal bovine serum with addition of 20 μL test compound in a serial dilution in the presence of final DMSO at 1% and 10 μL of 20 uM R848 in above DMEM, perform incubation under 37° C. in a CO2 incubator for 20 hrs. Then 20 μL of the supernatant from each well was incubated with 180 μL Quanti-blue substrate solution at 37° C. for 2 hrs and the absorbance was read at 620˜655 nm using a spectrophotometer. The signaling pathway that TLR7 activation leads to downstream NF-κB activation has been widely accepted, and therefore similar reporter assay was modified for evaluating TLR7 antagonist.

| SMILES | IC50 [nM] |
| --- | --- |
| C[C@@H]1CN(c2ccc(C#N)c3ncccc23)C[C@H](CN2CCN(c3ccc(CN)cc3)CC2)O1 [Example 5, 5-[(2S,6R)-2-[[4-[4-(aminomethyl)phenyl]piperazin-1-yl]methyl]-6-methyl-morpholin-4-yl]quinoline-8-carbonitrile] | 54 |
| C[C@@H]1CN(c2ccc(C#N)c3ncccc23)C[C@H](CN2CCN(c3cnc(N4CCNCC4)cn3)CC2)O1 [Example 6, 5-[(2R,6S)-2-methyl-6-[[4-(5-piperazin-1-ylpyrazin-2-yl)piperazin-1-yl]methyl]morpholin-4-yl]quinoline-8-carbonitrile] | 51 |
| COc1cc(N2CCN(C[C@H]3CN(c4ccc(C#N)c5ncccc45)C[C@@H](C)O3)CC2)nc(N2CCNCC2)n1 [Example 91, 5-[(2S,6R)-2-[[4-(6-methoxy-2-piperazin-1-yl-pyrimidin-4-yl)piperazin-1-yl]methyl]-6-methyl-morpholin-4-yl]quinoline-8-carbonitrile] | 13 |
| C[C@@H]1CN(c2ccc(C#N)c3ncccc23)C[C@H](CN2CCN(c3ncc(F)c(N4CCNCC4)n3)CC2)O1 [Example 94, 5-[(2S,6R)-2-[[4-(5-fluoro-4-piperazin-1-yl-pyrimidin-2-yl)piperazin-1-yl]methyl]-6-methyl-morpholin-4-yl]quinoline-8-carbonitrile] | 13 |
| CO[C@@H]1CN(c2nccc(N3CCN(C[C@H]4CN(c5ccc(C#N)c6nccnc56)C[C@@H](C)O4)CC3)n2)C[C@H]1N [Example 98, 8-[(2S,6R)-2-[[4-[2-[(3R,4R)-3-amino-4-methoxy-pyrrolidin-1-yl]pyrimidin-4-yl]piperazin-1-yl]methyl]-6-methyl-morpholin-4-yl]quinoxaline-5-carbonitrile] | 6 |
| CO[C@H]1CN(c2nccc(N3CCN(C[C@H]4CN(c5ccc(C#N)c6nccnc56)C[C@@H](C)O4)CC3)n2)C[C@@H]1N [Example 99, 8-[(2S,6R)-2-[[4-[2-[(3S,4S)-3-amino-4-methoxy-pyrrolidin-1-yl]pyrimidin-4-yl]piperazin-1-yl]methyl]-6-methyl-morpholin-4-yl]quinoxaline-5-carbonitrile] | 11 |
| Cc1cnc(N2CCN(C[C@H]3CN(c4ccc(C#N)c5ncccc45)C[C@@H](C)O3)CC2)nc1N1CCNCC1 [Example 102, 5-[(2R,6S)-2-methyl-6-[[4-(5-methyl-4-piperazin-1-yl-pyrimidin-2-yl)piperazin-1-yl]methyl]morpholin-4-yl]quinoline-8-carbonitrile] | 18 |
| C[C@@H]1CN(c2ccc(C#N)c3nccnc23)C[C@H](CN2CCN(c3ccnc(N4CC[C@H](N)[C@H](F)C4)n3)CC2)O1 [Example 111, 8-[(2S,6R)-2-[[4-[2-[(3R,4S)-4-amino-3-fluoro-1-piperidyl]pyrimidin-4-yl]piperazin-1-yl]methyl]-6-methyl-morpholin-4-yl]quinoxaline-5-carbonitrile] | 3 |
| C[C@@H]1CN(c2ccc(C#N)c3nccnc23)C[C@H](CN2CCN(c3ccnc(N4CC[C@@H](N)[C@H](F)C4)n3)CC2)O1 [Example 113, 8-[(2S,6R)-2-[[4-[2-[(3R,4R)-4-amino-3-fluoro-1-piperidyl]pyrimidin-4-yl]piperazin-1-yl]methyl]-6-methyl-morpholin-4-yl]quinoxaline-5-carbonitrile] | 8 |
| Cc1cc(N2C[C@@H](N)[C@@H](F)C2)nc(N2CCN(C[C@H]3CN(c4ccc(C#N)c5nccnc45)C[C@@H](C)O3)CC2)n1 [Example 115, 8-[(2S,6R)-2-[[4-[4-[(3R,4S)-3-amino-4-fluoro-pyrrolidin-1-yl]-6-methyl-pyrimidin-2-yl]piperazin-1-yl]methyl]-6-methyl-morpholin-4-yl]quinoxaline-5-carbonitrile] | 4 |

The next lines start with the values.

| IC50 [nM] | SMILES |
| --- | --- |
| 12 | COC1CN(c2nccc(N3CCN(C[C@H]4CN(c5ccc(C#N)c6ncccc56)C[C@@H](C)O4)CC3)n2)CC1N (stereo in doubt) [Example 93, 5-[(2S,6R)-2-[[4-[2-[(3R,4S)-3-amino-4-methoxy-pyrrolidin-1-yl]pyrimidin-4-yl]piperazin-1-yl]methyl]-6-methyl-morpholin-4-yl]quinoline-8-carbonitrile] |
| 5 | CO[C@@H]1CN(c2nccc(N3CCN(C[C@H]4CN(c5ccc(C#N)c6ncccc56)C[C@@H](C)O4)CC3)n2)C[C@@H]1N [Example 92, 5-[(2S,6R)-2-[[4-[2-[(3S,4R)-3-amino-4-methoxy-pyrrolidin-1-yl]pyrimidin-4-yl]piperazin-1-yl]methyl]-6-methyl-morpholin-4-yl]quinoline-8-carbonitrile] |
| 7 | C[C@@H]1CN(c2ccc(C#N)c3ncccc23)C[C@H](CN2CCN(c3ccnc(N4C[C@@H](F)[C@@H](N)C4)n3)CC2)O1 [Example 95, 5-[(2S,6R)-2-[[4-[2-[(3S,4R)-3-amino-4-fluoro-pyrrolidin-1-yl]pyrimidin-4-yl]piperazin-1-yl]methyl]-6-methyl-morpholin-4-yl]quinoline-8-carbonitrile] |
| 18 | C[C@@H]1CN(c2ccc(C#N)c3ncccc23)C[C@H](CN2CCN(c3ccnc(N4C[C@@H](N)[C@H](F)C4)n3)CC2)O1 [Example 96, 5-[(2S,6R)-2-[[4-[2-[(3R,4R)-3-amino-4-fluoro-pyrrolidin-1-yl]pyrimidin-4-yl]piperazin-1-yl]methyl]-6-methyl-morpholin-4-yl]quinoline-8-carbonitrile] |
| 27 | CO[C@H]1CN(c2ccnc(N3CCN(C[C@H]4CN(c5ccc(C#N)c6ncccc56)C[C@@H](C)O4)CC3)n2)C[C@@H]1N [Example 97, 5-[(2S,6R)-2-[[4-[4-[(3S,4S)-3-amino-4-methoxy-pyrrolidin-1-yl]pyrimidin-2-yl]piperazin-1-yl]methyl]-6-methyl-morpholin-4-yl]quinoline-8-carbonitrile] |
| 11 | C[C@@H]1CN(c2ccc(C#N)c3ncccc23)C[C@H](CN2CCN(c3ccnc(N4C[C@@H](N)[C@@H](F)C4)n3)CC2)O1 [Example 101, 5-[(2S,6R)-2-[[4-[2-[(3R,4S)-3-amino-4-fluoro-pyrrolidin-1-yl]pyrimidin-4-yl]piperazin-1-yl]methyl]-6-methyl-morpholin-4-yl]quinoline-8-carbonitrile] |
| 10 | C[C@@H]1CN(c2ccc(C#N)c3ncccc23)C[C@H](CN2CCN(c3ccnc(N4C[C@H]5NCCO[C@@H]5C4)n3)CC2)O1 [Example 103, 5-[(2S,6R)-2-[[4-[2-[(4aR,7aR)-3,4,4a,5,7,7a-hexahydro-2H-pyrrolo[3,4-b][1,4]oxazin-6-yl]pyrimidin-4-yl]piperazin-1-yl]methyl]-6-methyl-morpholin-4-yl]quinoline-8-carbonitrile] |
| 5 | C[C@@H]1CN(c2ccc(C#N)c3nccnc23)C[C@H](CN2CCN(c3ccnc(N4C[C@@H](N)[C@@H](F)C4)n3)CC2)O1 [Example 108, 8-[(2S,6R)-2-[[4-[2-[(3R,4S)-3-amino-4-fluoro-pyrrolidin-1-yl]pyrimidin-4-yl]piperazin-1-yl]methyl]-6-methyl-morpholin-4-yl]quinoxaline-5-carbonitrile] |
| 16 | COC1CCN(c2nccc(N3CCN(C[C@H]4CN(c5ccc(C#N)c6ncccc56)C[C@@H](C)O4)CC3)n2)CC1N (stereo partly drawn) [Example 109, 5-[(2S,6R)-2-[[4-[2-(3-amino-4-methoxy-1-piperidyl)pyrimidin-4-yl]piperazin-1-yl]methyl]-6-methyl-morpholin-4-yl]quinoline-8-carbonitrile] |
